# Source: patent US20030212014A1 (priority 2000, published 2003)
# Read-outs that look alike come from different tables or passages of the source.
# What was measured:
# HUVEC [1] = assay: Hyperglycemia-induced apoptosis in HUVEC (TUNEL); type: cell-based, human; details: 30 mM glucose + 1 mM AICAR
# Procedure: (A) Typical TUNEL staining (dark brown) with methylene blue counter-staining. TUNEL positive cells show a typical apoptotic configuration with shrinkage and nuclear fragmentation. […] The percentage of TUNEL positive cells was determined in 3 wells of 6 well plates (24 hr) or in eight of 60 mm dishes. Data are means ±SD.*p<0.05; vs 5 mM glucose. † p<0.05; vs 30 mM glucose alone;
# Na+/K+ pump = assay: Radioactive rubidium uptake with and without ouabain in HUVEC; type: cell-based, human; details: 2 mM AICAR for 2 hours
# Procedure: (§1) One of the major ATP users, the Na^+/K^+pump, was investigated. The activity of this pump was tested by measuring the uptake of radioactive rubidium in the absence and presence of ouabain, an Na^+/K^+pump inhibitor. The difference in uptake, which is referred to as ouabain-sensitive Rb^+uptake, is the Na^+/K^+pump activity. […] When the ouabain sensitive component was calculated, no ,difference was seen between the two incubations, (2.11±0.9 and 3.3±0.9 pmol/min/mg protein), thus leading us to believe that no change in Na^+/K^+pump activity had occurred. […] The AMPK activity remained high with a longer incubation time up to 120 minutes.
# [2] = test system: muscle ACC activity and malonyl CoA; assay: ACC activity and malonyl CoA in muscle two hours after AICAR injection; type: in vivo, rat; details: 250 mg/kg
# [3] = test system: human and bovine retinal pericytes; assay: Palmitate-induced apoptosis in retinal pericytes (TUNEL staining); type: cell-based
# Procedure: Apoptosis was induced by incubating the cells with a medium containing 0-0.5 mM palmitic acid for 3 days. Apoptotic cells were determined by conventional TUNEL staining. Ceramide and DAG levels were measured the by diacylgycerol kinase method using 32P-ATP.
# HUVEC [4] = assay: Serine incorporation into ceramide in HUVEC; type: cell-based, human; details: 30 mM glucose + AICAR, 24 hr
# Procedure: To assess whether alterations in ceramide contributed to these events, and particularly the decrease in membrane potential, we attempted to measure ceramide content. Ceramide was not detectable in HUVEC incubated with either 5 or 30 mM glucose. […] Consistent with these findings, we found no increase in serine incorporation into ceramide, (presumably a measure of de novo synthesis) in cells incubated for 24 hr in 30 vs 5 mM glucose.
# caspase-3 = assay: Caspase-3 activity in HUVEC incubated with 30 mM glucose; type: cell-based, human; details: 30 mM glucose + AICAR, 24 hr
# Text: A similar effect was observed when AMPK activity was increased by infecting HUVEC with constitutively active AMPK using an adenoviral vector (FIG. 9C).
# HUVEC [5] = type: cell-based, human
# Procedure: As previously mentioned, AMPK increases fatty acid oxidation in both liver and skeletal muscle by phosphorylation and inhibition of acetyl CoA carboxylase. We wanted to test if this effect of AMPK is also present in endothelial cells. […] A significant decrease was seen within the first 30 minutes of incubation (FIG. 3). ACC activity went down from 163.1±27.0 pmol/min/mg protein at 0 minutes to 61.1±1.1 at 30 minutes (P=0.004), 73.0 ±12.4 at 60 minutes and 51.2±5.0 at 120 minutes (P=0.015). As previously described, ACC activation increases malonyl CoA levels and this in turn inhibits CPT1, the enzyme responsible for the uptake of long chain fatty acyl CoA into the mitochondria where they are oxidized. […] Fatty acid oxidation was measured by the formation of titrated water (^3H2O) in cells incubated with ^3H-palmitate. A significant increase was seen only after a 2-hour incubation (P=0.002). […] (See Table 1A, FIG. 6.) Glucose and fatty acid oxidation, glucose uptake and lactate and pyruvate release were determined in the absence and presence of […] carnitine.
# To see if this also occurred in endothelial cells, glucose uptake was measured (Table 1).
# In addition, lactate and pyruvate production were measured to see if the rate of glycolysis had changed.
# This was not attributable to an increase in glucose oxidation. Glucose oxidation was measured by determining labeled CO2 production when the cells are incubated with ^14C-(U) glucose.
# As a result their rate of oxidation can be greatly underestimated unless the tissue is prelabeled with fatty acid. […] Thus, when the HUVEC were pre-incubated with radioactive palmitate for 24 hours prior to ^14CO2 collection (to label the intracellular lipid pools), the measured rate of fatty acid oxidation was increased by 5 fold during the second hour of a two-hour incubation with radioactive palmitate added to the medium. […] (See Table 1A.)
# [6] = test system: AMP-activated protein kinase (AMPK); assay: AMP-activated protein kinase activity in HUVEC incubated with AICAR; type: cell-based, human
# Procedure: The enzyme was assayed in a reaction mixture containing either no AMP or 0.2 mM 5′-AMP. The difference in the activity is the AMP-activated kinase activity. […] This indicates the presence of AMPK and AMPKK in HUVEC.
# as §1
# rats = assay: Acute effects of AICAR on blood and plasma metabolites and hormones in rats; type: in vivo, rat
# high-fat fed (HFF) rats = assay: Acute effects of a single AICAR injection in high-fat fed (HFF) rats; type: in vivo, rat
# Procedure: Plasma parameters: This experiment was performed on HFF rats under conscious conditions following 5-7 hours of fasting. After catheters were connected to blood sampling syringes, the animals were allowed to rest for 40-50 min. Two blood samples were taken 20 min. apart, constituting the basal samples (time 0). […] Blood samples were collected at 30, 60, 90 and 120 min. after the injection. After the last sample was taken, the animals were euthanized. […] Tissue parameters: The glycogen and triglyceride content of two types of skeletal muscle and liver at the end of the experiment were determined (Table 9, FIG. 27).
# [7] = HFF rats, 250 mg/kg s.c., vs HFF-Con
smiles,measurement,setting,value
"NC(=O)c1ncn([C@@H]2O[C@H](CO)[C@@H](O)[C@H]2O)c1N [AICAR, 5-aminoimidizole-4-carboxamide riboside]",apoptotic rate (TUNEL-positive cells),HUVEC [1]; 24 hours,no affect
same,increase in apoptosis caused by hyperglycemia,HUVEC [1]; 72 hours,completely prevented
same,ouabain-sensitive Rb+ uptake (Na+/K+ pump activity),Na+/K+ pump,3.3±0.9 pmol/min/mg protein
same,total rubidium uptake,Na+/K+ pump,6.0 ±0.3 pmol/min/mg protein
same,ACC activity in muscle,[2],did not depress ACC significantly
same,malonyl CoA levels in muscle,[2],no effect
same,apoptotic cells (TUNEL),"[3]; 0.5 mM palmitate + 1 mM AICAR, 3 days",10±2%
same,decrease in apoptosis,[3]; 1 mM AICAR vs 0.5 mM palmitate alone,50%
same,serine incorporation into ceramide,HUVEC [4],9.0±1.2
same,caspase-3 activity,caspase-3,833±14 arbitrary unit
same,fatty acid oxidation,"HUVEC [5]; 50 pM carnitine added, 3H-palmitate, 2-hour incubation",increased significantly
same,glucose oxidation (labeled CO2 production),"HUVEC [5]; 14C-(U) glucose, after two hours",increased significantly
same,lactate production,"HUVEC [5]; AICAR incubation, 2 hours",even more obvious decrease
same,pyruvate production,"HUVEC [5]; AICAR incubation, 2 hours","slight, but significant decrease"
same,ATP generated accounted for by fatty acid oxidation,HUVEC [5]; HUVEC incubated 2 hrs in 6 mM glucose with AICAR,~40%
same,fatty acid oxidation,"HUVEC [5]; absence of carnitine, 2 hours",did not show any changes
same,levels of ATP measured by bioluminescence,HUVEC [5]; after AICAR incubation,rose
same,glucose uptake,HUVEC [5]; during the AICAR incubation,decreased
same,calculated rate of ATP generation,HUVEC [5]; no prelabeling (Table 1),significantly diminished
same,ATP generated accounted for by fatty acid oxidation,"HUVEC [5]; second hour of two-hour incubation, 24 hours prelabeling with palmitate, with AICAR",60%
same,AMP-activated kinase activity,"[6]; 0.2 mM AICAR, 30 minutes, HUVEC",15.8±0.4 pmol/min/mg protein
same,AMP-activated kinase activity,"[6]; 0.5 mM AICAR, 30 minutes, HUVEC",22.5±0.3 pmol/min/mg protein
same,AMP-activated kinase activity,"[6]; 2 mM AICAR, 30 minutes, HUVEC (concentration series)",30.9±0.2 pmol/min/mg protein
same,AMP-activated kinase activity,"[6]; 2 mM AICAR, at 30 minutes (time course)",30.8 pmol/min/mg protein
same,AMP-activated kinase activity,"[6]; 2 mM AICAR, at 60 minutes (time course)",31.5 pmol/min/mg protein
same,AMP-activated kinase activity,"[6]; 2 mM AICAR, at 120 minutes (time course)",32.3 pmol/min/mg protein
same,blood glucose levels,"rats; 250 mg/kg, 2-6 hours following administration",moderately diminished
same,blood lactate,"rats; acute, high doses",increase
same,plasma free fatty acid (FFA) levels,"rats; acute, high doses",decrease
same,plasma leptin,"rats; all doses studied, at 2 hrs",did not significantly alter
same,plasma triglycerides,"rats; all doses studied, at 2 hrs",did not significantly alter
same,changes in tissue triglyceride content,high-fat fed (HFF) rats; 2 h after the injection,not significant
same,increase in glycogen content in white muscle,high-fat fed (HFF) rats; 2 h after the injection,16%
same,reduction in liver glycogen,high-fat fed (HFF) rats; 2 h after the injection,52%
same,duration of decrease in plasma glucose,"high-fat fed (HFF) rats; HFF rats, 250 mg/kg s.c.",at least 60 minutes
same,plasma FFA,"high-fat fed (HFF) rats; HFF rats, 250 mg/kg s.c.",remained unchanged
same,time to decrease in plasma glucose,"high-fat fed (HFF) rats; HFF rats, 250 mg/kg s.c.",≤ 30 min
same,plasma glucose,"high-fat fed (HFF) rats; HFF rats, 250 mg/kg s.c., 30-120 min post-injection",decrease
same,plasma glycerol,high-fat fed (HFF) rats; [7],increase
same,plasma triglyceride levels,high-fat fed (HFF) rats; [7],decrease
same,plasma insulin,"high-fat fed (HFF) rats; HFF rats, 250 mg/kg s.c., vs saline",decrease
